As usually defined, the EC50 is the concentration giving half of the maximal effect.

We go through five compounds from ChEMBL document CHEMBL3046587, “Baseline sensitivity of Monilinia laxa from Greece to fenhexamid and analysis of fenhexamid-resistant mutants” (Crop Prot, 2013).

In assay [1] the test system is Monilinia laxa. Briefly: Fungitoxicity against moderately fenhexamid resistant Monilinia laxa MF-8 assessed as reduction in mycelial growth measured at 25 degC after 4 days. The assay is classed as functional, organism-based. As to conditions: MF-8, 96 h.
Assay [2] has as its system Monilinia laxa. Put plainly: Fungitoxicity against wild type Monilinia laxa K2 assessed as reduction in mycelial growth measured at 25 degC after 4 days. In kind it is functional, organism-based. As to conditions: K2, 96 h.
Assay [3] concerns Monilinia laxa. Put plainly: Fungitoxicity against highly fenhexamid resistant Monilinia laxa MF-5 assessed as reduction in mycelial growth measured at 25 degC after 4 days. The assay is classed as functional, organism-based. The conditions noted are these: MF-5, 96 h.
For assay [4], the system named is Monilinia laxa. Put plainly: Fungitoxicity against moderately fenhexamid resistant Monilinia laxa MF-22 assessed as reduction in mycelial growth measured at 25 degC after 4 days. The conditions noted are these: MF-22, 96 h. The assay is classed as functional, organism-based.
Assay [5] has as its system Monilinia laxa. Put plainly: Fungitoxicity against highly fenhexamid resistant Monilinia laxa MF-3 assessed as reduction in mycelial growth measured at 25 degC after 4 days. In kind it is functional, organism-based. As to conditions: MF-3, 96 h.
Assay [6] relates to Monilinia laxa. Put plainly: Fungitoxicity against moderately fenhexamid resistant Monilinia laxa MF-4 assessed as reduction in mycelial growth measured at 25 degC after 4 days. The assay is classed as functional, organism-based. As to conditions: MF-4, 96 h.
Assay [7] concerns Monilinia laxa. Briefly: Fungitoxicity against moderately fenhexamid resistant Monilinia laxa MF-7 assessed as reduction in mycelial growth measured at 25 degC after 4 days. The assay is classed as functional, organism-based. The conditions noted are these: MF-7, 96 h.
The test system of assay [8] is Monilinia laxa. Put plainly: Fungitoxicity against moderately fenhexamid resistant Monilinia laxa MF-1 assessed as reduction in mycelial growth measured at 25 degC after 4 days. The assay is classed as functional, organism-based. The conditions noted are these: MF-1, 96 h.
Assay [9] relates to Monilinia laxa. Briefly: Fungitoxicity against highly fenhexamid resistant Monilinia laxa MF-2 assessed as reduction in mycelial growth measured at 25 degC after 4 days. The assay is classed as functional, organism-based. As to conditions: MF-2, 96 h.
In assay [10] the test system is Monilinia laxa. Put plainly: Fungitoxicity against moderately fenhexamid resistant Monilinia laxa MF-6 assessed as reduction in mycelial growth measured at 25 degC after 4 days. As to conditions: MF-6, 96 h. The assay is classed as functional, organism-based.
Assay [11] has as its system Monilinia laxa. Put plainly: Fungitoxicity against Monilinia laxa MLP2 assessed as diameter of mycelial colony measured at 25 degC after 4 days. The assay is classed as functional.
Assay [12] has as its system Monilinia laxa. Put plainly: Resistance factor, ratio of EC50 for Monilinia laxa MF-4 to EC50 for wild type Monilinia laxa K2. The assay is classed as functional.
Assay [13] deals with Monilinia laxa. Put plainly: Fungitoxicity against Monilinia laxa MF-20 assessed as diameter of mycelial colony measured at 25 degC after 4 days. The assay is classed as functional.
The test system of assay [14] is Monilinia laxa. Briefly: Resistance factor, ratio of EC50 for Monilinia laxa MF-15 to EC50 for wild type Monilinia laxa K2. The assay is classed as functional.
Assay [15] relates to Monilinia laxa. Briefly: Fungitoxicity against Monilinia laxa MF-3 assessed as diameter of mycelial colony measured at 25 degC after 4 days. The assay is classed as functional.
For assay [16], the system named is Monilinia laxa. Put plainly: Resistance factor, ratio of EC50 for Monilinia laxa MF-5 to EC50 for wild type Monilinia laxa K2. In kind it is functional.
Assay [17] relates to Monilinia laxa. Put plainly: Fungitoxicity against Monilinia laxa MLK12 assessed as diameter of mycelial colony measured at 25 degC after 4 days. In kind it is functional.
The test system of assay [18] is Monilinia laxa. Put plainly: Resistance factor, ratio of EC50 for Monilinia laxa MF-2 to EC50 for wild type Monilinia laxa K2. In kind it is functional.
In assay [19] the test system is Monilinia laxa. Put plainly: Resistance factor, ratio of EC50 for Monilinia laxa MF-7 to EC50 for wild type Monilinia laxa K2. In kind it is functional.
Assay [20] concerns Monilinia laxa. Briefly: Resistance factor, ratio of EC50 for Monilinia laxa MF-22 to EC50 for wild type Monilinia laxa K2. In kind it is functional.
The test system of assay [21] is Monilinia laxa. Put plainly: Fungitoxicity against Monilinia laxa MF-1 assessed as diameter of mycelial colony measured at 25 degC after 4 days. In kind it is functional.
Assay [22] deals with Monilinia laxa. Briefly: Fungitoxicity against Monilinia laxa MLBO7 assessed as diameter of mycelial colony measured at 25 degC after 4 days. The assay is classed as functional.
For assay [23], the system named is Monilinia laxa. Briefly: Fungitoxicity against Monilinia laxa MF-22 assessed as diameter of mycelial colony measured at 25 degC after 4 days. The assay is classed as functional.
In assay [24] the test system is Monilinia laxa. Put plainly: Resistance factor, ratio of EC50 for Monilinia laxa MF-20 to EC50 for wild type Monilinia laxa K2. The assay is classed as functional.
In assay [25] the test system is Monilinia laxa. Briefly: Fungitoxicity against Monilinia laxa MF-4 assessed as diameter of mycelial colony measured at 25 degC after 4 days. The assay is classed as functional.
In assay [26] the test system is Monilinia laxa. Put plainly: Fungitoxicity against Monilinia laxa MF-8 assessed as diameter of mycelial colony measured at 25 degC after 4 days. The assay is classed as functional.
Assay [27] concerns Monilinia laxa. Put plainly: Fungitoxicity against Monilinia laxa MLK6 assessed as diameter of mycelial colony measured at 25 degC after 4 days. In kind it is functional.
Assay [28] concerns Monilinia laxa. Put plainly: Fungitoxicity against Monilinia laxa MLC2 assessed as diameter of mycelial colony measured at 25 degC after 4 days. The assay is classed as functional.
The subject of assay [29] is Monilinia laxa. Put plainly: Fungitoxicity against Monilinia laxa MF-6 assessed as diameter of mycelial colony measured at 25 degC after 4 days. The assay is classed as functional.
The subject of assay [30] is Monilinia laxa. Briefly: Fungitoxicity against Monilinia laxa MF-2 assessed as diameter of mycelial colony measured at 25 degC after 4 days. In kind it is functional.
The subject of assay [31] is Monilinia laxa. Briefly: Fungitoxicity against Monilinia laxa MF-15 assessed as diameter of mycelial colony measured at 25 degC after 4 days. The assay is classed as functional.
Assay [32] concerns Monilinia laxa. Put plainly: Fungitoxicity against Monilinia laxa K2 assessed as diameter of mycelial colony measured at 25 degC after 4 days. In kind it is functional.
Assay [33] relates to Monilinia laxa. Briefly: Resistance factor, ratio of EC50 for Monilinia laxa MLX2 to EC50 for wild type Monilinia laxa K2. In kind it is functional.
Assay [34] has as its system Monilinia laxa. Put plainly: Resistance factor, ratio of EC50 for Monilinia laxa MF-6 to EC50 for wild type Monilinia laxa K2. The assay is classed as functional.
Assay [35] has as its system Monilinia laxa. Briefly: Resistance factor, ratio of EC50 for Monilinia laxa MLBO7 to EC50 for wild type Monilinia laxa K2. The assay is classed as functional.
In assay [36] the test system is Monilinia laxa. Briefly: Fungitoxicity against Monilinia laxa MF-19 assessed as diameter of mycelial colony measured at 25 degC after 4 days. The assay is classed as functional.
Assay [37] concerns Monilinia laxa. Put plainly: Fungitoxicity against Monilinia laxa MLX2 assessed as diameter of mycelial colony measured at 25 degC after 4 days. In kind it is functional.
The test system of assay [38] is Monilinia laxa. Put plainly: Resistance factor, ratio of EC50 for Monilinia laxa MF-8 to EC50 for wild type Monilinia laxa K2. The assay is classed as functional.
The test system of assay [39] is Monilinia laxa. Put plainly: Resistance factor, ratio of EC50 for Monilinia laxa MF-1 to EC50 for wild type Monilinia laxa K2. In kind it is functional.
Assay [40] relates to Monilinia laxa. Briefly: Resistance factor, ratio of EC50 for Monilinia laxa MLC2 to EC50 for wild type Monilinia laxa K2. In kind it is functional.
For assay [41], the system named is Monilinia laxa. Briefly: Resistance factor, ratio of EC50 for Monilinia laxa MLP2 to EC50 for wild type Monilinia laxa K2. In kind it is functional.
Assay [42] deals with Monilinia laxa. Briefly: Resistance factor, ratio of EC50 for Monilinia laxa MLK12 to EC50 for wild type Monilinia laxa K2. The assay is classed as functional.
Assay [43] concerns Monilinia laxa. Briefly: Fungitoxicity against Monilinia laxa MF-5 assessed as diameter of mycelial colony measured at 25 degC after 4 days. In kind it is functional.
Assay [44] has as its system Monilinia laxa. Put plainly: Resistance factor, ratio of EC50 for Monilinia laxa MLK6 to EC50 for wild type Monilinia laxa K2. In kind it is functional.
Assay [45] relates to Monilinia laxa. Put plainly: Resistance factor, ratio of EC50 for Monilinia laxa MF-19 to EC50 for wild type Monilinia laxa K2. In kind it is functional.
In assay [46] the test system is Monilinia laxa. Briefly: Fungitoxicity against Monilinia laxa MF-7 assessed as diameter of mycelial colony measured at 25 degC after 4 days. In kind it is functional.
For assay [47], the system named is Monilinia laxa. Put plainly: Resistance factor, ratio of EC50 for Monilinia laxa MF-3 to EC50 for wild type Monilinia laxa K2. In kind it is functional.

In brackets after ≈: the same amount, converted by molar mass.

Take `CC(Cc1ccc(C(C)(C)C)cc1)CN1C[C@@H](C)O[C@@H](C)C1` (stereo partly specified) [FENPROPIMORPH]: the EC50 came out at 0.3 mg/L (≈ 0.989 µM) in assay [1]; 0.14 mg/L (≈ 0.461 µM) in assay [2]; 0.15 mg/L (≈ 0.494 µM) in assay [3]; 0.5 mg/L (≈ 1.65 µM) in assay [4]; 0.11 mg/L (≈ 0.362 µM) in assay [5]; 0.12 mg/L (≈ 0.395 µM) in assay [6]. The EC50 in [7] was determined as 0.1 mg/L (≈ 0.33 µM); in assay [8], 1 mg/L (≈ 3.3 µM); in [9], 0.18 mg/L (≈ 0.593 µM); in [10], 1 mg/L (≈ 3.3 µM).

For the compound `CC1(C(=O)Nc2ccc(O)c(Cl)c2Cl)CCCCC1` [FENHEXAMID], the Activity in assay [11] came to 60 mm; in assay [13] it was 55 mm; in [15], 60 mm; in assay [17], 55 mm; in [21] it was 50 mm; in assay [22] it was 60 mm. For the same compound, the Activity in [23] amounted to 56 mm; in assay [25], 57 mm; in assay [26], 58 mm; in [27] it was 52 mm; in assay [28], 49 mm; in assay [29] it was 56 mm. Further, the Activity in assay [30] is 54 mm; in assay [31], 56 mm; in [32], 57 mm; in assay [36], 55 mm; in [37] it was 59 mm; in [43], 57 mm. For the same compound, the Activity in assay [46] is recorded as 55 mm. Further, the “Ratio EC50” value is on record as 40 in [12]; 31 in assay [14]; 70 in assay [16]; 111 in [18]; 22 in assay [19]; 37 in [20]. In addition, the “Ratio EC50” value is given as 34 in [24]; 1.1 in [33]; 58 in assay [34]; 0.4 in assay [35]; 58 in [38]; 23 in [39]. The “Ratio EC50” value in [40] turned out to be 3.7; in assay [41], 0.3; in assay [42], 2.2; in assay [44], 1.2; in [45], 43; in assay [47] it was 75. Further, the EC50 was found to be 5.8 mg/L (≈ 19.2 µM) in assay [1]; 0.1 mg/L (≈ 0.331 µM) in assay [2]; 6.9 mg/L (≈ 22.8 µM) in [3]; 3.7 mg/L (≈ 12.2 µM) in assay [4]; 7.4 mg/L (≈ 24.5 µM) in assay [5]; 4 mg/L (≈ 13.2 µM) in assay [6]. Besides, the EC50 in assay [7] came out at 2.3 mg/L (≈ 7.61 µM); in [8], 2.2 mg/L (≈ 7.28 µM); in assay [9], 11.1 mg/L (≈ 36.7 µM); in assay [10] it was 5.8 mg/L (≈ 19.2 µM).

Take `COC(=O)Nc1nc2ccccc2[nH]1` [CARBENDAZIM]: the EC50 in assay [3] was determined as 0.5 mg/L (≈ 2.62 µM); in assay [6], 0.2 mg/L (≈ 1.05 µM); in assay [7] it was 0.3 mg/L (≈ 1.57 µM); in [10], 0.2 mg/L (≈ 1.05 µM).

Regarding `C[Si](Cn1cncn1)(c1ccc(F)cc1)c1ccc(F)cc1` [FLUSILAZOLE], the EC50 in assay [1] is 0.2 mg/L (≈ 0.634 µM); in assay [2], 0.1 mg/L (≈ 0.317 µM); in [3], 0.1 mg/L (≈ 0.317 µM); in [4], 0.4 mg/L (≈ 1.27 µM); in [5] it was 0.1 mg/L (≈ 0.317 µM); in [6] it was 0.1 mg/L (≈ 0.317 µM). Further, the EC50 in assay [7] was determined as 0.2 mg/L (≈ 0.634 µM); in [8], 0.2 mg/L (≈ 0.634 µM); in assay [9], 0.1 mg/L (≈ 0.317 µM); in assay [10], 0.3 mg/L (≈ 0.951 µM).

Consider `N#Cc1c[nH]cc1-c1cccc2c1OC(F)(F)O2` [FLUDIOXONIL], for which the EC50 stood at 0.05 mg/L (≈ 0.201 µM) in assay [1]; 0.01 mg/L (≈ 0.0403 µM) in [2]; 0.01 mg/L (≈ 0.0403 µM) in assay [3]; 0.02 mg/L (≈ 0.0806 µM) in assay [4]; 0.01 mg/L (≈ 0.0403 µM) in assay [5]; 0.03 mg/L (≈ 0.121 µM) in assay [6]. In addition, the concentration giving a half-maximal response (EC50) in assay [7] was 0.01 mg/L (≈ 0.0403 µM); in [8], 0.02 mg/L (≈ 0.0806 µM); in assay [9], 0.03 mg/L (≈ 0.121 µM); in [10], 0.02 mg/L (≈ 0.0806 µM).
